What was measured:
FLT3 = FLT3 (Homo sapiens, UniProt P36888); assay: biochemical; conditions: read-out: Inhibition of kinase activity
Description: These assays were conducted according to the manufacturer’s instructions. […] TK-ELISA and MSA assays were used to conduct IC50 studies for FLT3, LTK, AXL, and c-KIT; the HTRF® KinEASE™-TK assay (Sceti Medical Labo, Tokyo, Japan) was performed according to the manufacturer’s protocol to assess the IC50 value of echinoderm microtubule-associated protein-like 4-ALK (EML4-ALK; three individual experiments for each kinase).

LTK = molecular target: T1, LTK (Homo sapiens, UniProt P29376); assay: Kinase inhibitory assay (TK-ELISA / off-chip MSA); type: biochemical
T1 construct: purchased Carna Biosciences, Inc

AXL = molecular target: T2, AXL (Homo sapiens, UniProt P30530); assay: Kinase inhibitory assay (TK-ELISA / off-chip MSA); type: biochemical; conditions: 1 nM; single experiment
T2 construct: purchased Carna Biosciences, Inc

[1] = tested on: Ba/F3 cells expressing FLT3-ITD-F691 L; assay: CellTiter-Glo cell viability; type: cell-based; conditions: Mus musculus, BaF3, 48 h; 2 days of treatment; read-out: Cell growth inhibition IC50
Description: (§1) A detailed protocol is provided in the online resource.
(§2) To examine the effect of ASP2215 on cell viability, MV4-11, MOLM-13, and Ba/F3 cells expressing either FLT3-ITD, FLT3-D835Y, FLT3-ITD-D835Y, FLT3-ITD-F691L or FLT3-ITD-F691I were seeded into 96-well white plates (Nunc F96 MicroWell™ Plates, white; Thermo Fisher Scientific Inc., Waltham, MA) at 1000 cells/well in Iscove’s Modified Dulbecco’s Medium, 500 cells/well in RPMI 1640 or 1000 cells/well in RPMI 1640, respectively. All cell lines were cultured overnight in a humidified incubator at 37°C with 5% CO2 in media supplemented with 10% heat-inactivated FBS.
(§3) After treatment, the CellTiter-Glo® Luminescent Cell Viability Assay (Promega) was used according to the manufacturer’s instructions and luminescence was measured using an ARVO-HTS plate reader (Perkin Elmer Inc., Waltham, MA). The assay was performed in either triplicate or quadruplicate. […] The geometric mean was calculated from three individual experiments.
(§4) The mutants of FLT3 (NM_004119), FLT3-D835Y (gat to tat), FLT3-ITD (insertion of […] at 1799 position of CDS), FLT3-ITD-F691I (ttt to att), FLT3-ITD-F691L (ttt to ctt), FLT3-ITD-D835Y were encoded into pMX-puro vector (Cell Biolabs, Inc., San Diego, CA), and transfected with FuGENE-HD (Promega) into Platinum-E cells. […]

[2] = tested on: Ba/F3 cells expressing FLT3-ITD-F691I; assay: CellTiter-Glo cell viability; type: cell-based; conditions: Mus musculus, BaF3, 48 h; 2 days of treatment; read-out: Cell growth inhibition IC50
Description: as §1, §2, §3, §4

[3] = Body weight in MV4–11 xenograft study; type: in vivo, mice; conditions: 1–10 mg/kg/day oral, 28 days; any tested dose
Description: Once tumor growth had been confirmed, mice xenografted with MV4–11 cells were monitored for 28 days; mice xenografted with Ba/F3 cells expressing FLT3 mutations were monitored for 7 days. Tumor diameter was measured using a caliper, and tumor volume was determined by calculating the volume of an ellipsoid using the formula: length × width^2 × 0.5. Body weight was measured using a standard balance. Data are expressed as mean ± SEM from n = 6 mice/group (MV4–11) and n = 5 mice/group (Ba/F3).
After tumor establishment, mice were divided into groups such that the mean tumor volume was approximately equal in each group.

T1 sequence (P29376 17-864): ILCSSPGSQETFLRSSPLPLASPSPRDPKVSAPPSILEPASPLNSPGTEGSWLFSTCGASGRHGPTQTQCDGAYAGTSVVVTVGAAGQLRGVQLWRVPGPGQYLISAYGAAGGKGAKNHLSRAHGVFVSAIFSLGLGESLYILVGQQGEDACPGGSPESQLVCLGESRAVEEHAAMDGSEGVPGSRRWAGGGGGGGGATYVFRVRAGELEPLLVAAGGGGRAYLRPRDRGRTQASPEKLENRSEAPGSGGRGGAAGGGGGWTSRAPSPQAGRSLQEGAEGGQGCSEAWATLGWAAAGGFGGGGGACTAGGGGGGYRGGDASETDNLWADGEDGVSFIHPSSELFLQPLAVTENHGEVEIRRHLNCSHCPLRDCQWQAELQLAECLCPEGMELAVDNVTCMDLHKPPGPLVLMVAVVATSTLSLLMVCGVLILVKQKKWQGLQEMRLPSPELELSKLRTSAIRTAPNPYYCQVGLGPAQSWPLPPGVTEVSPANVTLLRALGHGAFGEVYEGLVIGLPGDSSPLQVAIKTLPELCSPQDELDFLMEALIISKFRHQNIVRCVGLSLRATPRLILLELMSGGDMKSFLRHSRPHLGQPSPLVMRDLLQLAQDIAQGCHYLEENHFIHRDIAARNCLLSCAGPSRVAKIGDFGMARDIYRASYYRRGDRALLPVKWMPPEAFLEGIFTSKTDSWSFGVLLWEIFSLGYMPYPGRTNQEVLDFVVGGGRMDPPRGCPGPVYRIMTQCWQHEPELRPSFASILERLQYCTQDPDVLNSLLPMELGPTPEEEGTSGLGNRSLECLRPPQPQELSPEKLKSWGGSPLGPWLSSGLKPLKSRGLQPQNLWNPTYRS
T2 sequence (P30530 26-894): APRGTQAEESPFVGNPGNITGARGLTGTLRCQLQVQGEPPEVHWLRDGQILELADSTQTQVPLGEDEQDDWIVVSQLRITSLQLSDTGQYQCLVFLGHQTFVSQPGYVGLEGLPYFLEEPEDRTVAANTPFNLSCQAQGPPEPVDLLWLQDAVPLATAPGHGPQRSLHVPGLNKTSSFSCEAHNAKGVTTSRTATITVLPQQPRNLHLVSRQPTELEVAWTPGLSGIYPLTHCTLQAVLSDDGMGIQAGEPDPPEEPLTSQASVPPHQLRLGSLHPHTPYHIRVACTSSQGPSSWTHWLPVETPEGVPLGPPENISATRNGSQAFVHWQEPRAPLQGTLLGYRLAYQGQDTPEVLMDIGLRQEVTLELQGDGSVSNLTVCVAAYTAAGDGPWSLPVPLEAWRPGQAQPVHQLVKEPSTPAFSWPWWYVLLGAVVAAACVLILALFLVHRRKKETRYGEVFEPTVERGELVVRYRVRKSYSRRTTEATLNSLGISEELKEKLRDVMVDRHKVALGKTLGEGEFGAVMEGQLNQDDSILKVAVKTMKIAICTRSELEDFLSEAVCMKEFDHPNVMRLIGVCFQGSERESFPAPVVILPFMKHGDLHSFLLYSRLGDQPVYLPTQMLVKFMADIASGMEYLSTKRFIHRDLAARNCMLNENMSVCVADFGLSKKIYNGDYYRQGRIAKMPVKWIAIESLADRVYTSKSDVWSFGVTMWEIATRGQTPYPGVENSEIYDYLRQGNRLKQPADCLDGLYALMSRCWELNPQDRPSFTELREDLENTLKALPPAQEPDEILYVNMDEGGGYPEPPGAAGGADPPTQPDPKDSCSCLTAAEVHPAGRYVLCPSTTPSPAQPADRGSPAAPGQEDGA
FLT3, sequence (P36888 27-993): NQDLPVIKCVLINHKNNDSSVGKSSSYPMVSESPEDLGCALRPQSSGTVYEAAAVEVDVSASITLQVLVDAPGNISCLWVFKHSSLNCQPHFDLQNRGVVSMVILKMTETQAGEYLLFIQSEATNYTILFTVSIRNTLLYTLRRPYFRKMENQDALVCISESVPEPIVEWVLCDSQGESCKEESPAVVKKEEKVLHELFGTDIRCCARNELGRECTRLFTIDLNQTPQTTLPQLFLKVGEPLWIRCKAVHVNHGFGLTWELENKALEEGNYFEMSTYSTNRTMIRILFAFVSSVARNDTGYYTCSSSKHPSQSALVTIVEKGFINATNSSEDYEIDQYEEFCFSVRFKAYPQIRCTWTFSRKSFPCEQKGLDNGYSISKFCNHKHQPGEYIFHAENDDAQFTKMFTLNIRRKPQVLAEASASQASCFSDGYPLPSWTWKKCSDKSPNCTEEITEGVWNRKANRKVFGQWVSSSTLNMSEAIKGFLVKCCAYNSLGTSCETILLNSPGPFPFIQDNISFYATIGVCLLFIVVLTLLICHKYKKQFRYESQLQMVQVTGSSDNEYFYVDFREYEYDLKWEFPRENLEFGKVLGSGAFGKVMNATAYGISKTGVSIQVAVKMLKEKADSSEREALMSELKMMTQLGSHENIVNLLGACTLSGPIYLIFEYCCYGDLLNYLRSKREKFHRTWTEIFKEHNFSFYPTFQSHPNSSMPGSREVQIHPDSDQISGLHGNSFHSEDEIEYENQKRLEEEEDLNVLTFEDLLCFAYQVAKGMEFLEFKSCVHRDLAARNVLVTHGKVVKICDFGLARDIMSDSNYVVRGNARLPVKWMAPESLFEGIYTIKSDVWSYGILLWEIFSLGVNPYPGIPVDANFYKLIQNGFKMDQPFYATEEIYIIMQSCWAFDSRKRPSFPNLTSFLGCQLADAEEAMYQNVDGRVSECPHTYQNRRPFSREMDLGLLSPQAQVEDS

CCc1nc(C(N)=O)c(Nc2ccc(N3CCC(N4CCN(C)CC4)CC3)c(OC)c2)nc1NC1CCOCC1 [gilteritinib]
inhibition at 0.001 µM (FLT3): > 50%
IC50 (LTK): 0.35 nM
inhibition at 0.001 µM (LTK; 1 nM, single experiment): > 50%
inhibition at 0.001 µM (AXL): > 50%
IC50 [1]: 22 nM
IC50 [2]: 49 nM
Body weight [3]: not affected
